Reference: PMC5578999, “Novel quinolone chalcones targeting colchicine-binding pocket kill multidrug-resistant cancer cells by inhibiting tubulin activity and MRP1 function” (Scientific Reports, 2017)

Columns and labels:
KB-C-2 [1] = assay: SRB cell viability, MDR1-overexpressing cells; type: cell-based; settings: Homo sapiens, KB-C2; KB-C-2; Table S1
Description: (§1) human epidermoid carcinoma cell line and KB-C2, an isogenic MDR1- overexpressing drug-resistant cell line, were kindl y provided b y Dr. Amit K Tiwari, the Universit y of Toledo, OH. […]
(§2) Cell line authentication was carried out by Genetica DNA
(§3) Cell viability, com binational i ndex and cell synchronization
(§4) Cell viability and proliferation were ex amined using a s ulforhodamine B (SRB) assa y as […]
(§5) IC 50 values were calculat ed from si gmoidal dose-response cu rves gen erat ed b y at least two indepen dent ex periments , with each quadruplicate samples, using GraphPad Prism v.5.04 software (GraphPad Software, Inc, La J olla, CA). […]
(§6) (sham) or presence of compound(s). […]

KB-C-1 = assay: SRB cell viability, parental cells; type: cell-based; settings: Homo sapiens, KBC-1; KB-C-1; Table S1
Description: as §1, §2, §3, §4, §5, §6

SW-1271 = assay: SRB cell viability; type: cell-based; settings: SW1271, Table S1
Description: as §2, §3, §4, §5, §6

KB-C-2 [2] = assay: SRB cell viability, MDR1-overexpressing cells; type: cell-based, human; settings: for Resistance (fold): KB-C-2 vs KB-C-1, Table S1
H69AR = assay: SRB cell viability, multidrug-resistant cells; type: cell-based; settings: Table S1; for Resistance (fold): H69AR vs SW-1271; for IC50: Homo sapiens, H69AR
Description: as §2, §3, §4, §5, §6

MDA-MB-231 = assay: SRB cell viability and combinational index; type: cell-based; settings: Homo sapiens; MDA-MB-231 cells
Description: (§7) Dr. Susan Cole (Queen’s Universit y, Kingston, Ontario, Canada). The pacl itaxel-resistant MDA-MB-231TaxR cell line was generated in house b y culturing MDA-MB-231 cells (purchased from ATCC and authen ticated ) in the gradual l y incr easi ng con centr ations of pacl itax el until the concentration reached to 100 nM. Cell line authentication was carried out by Genetica DNA Laboratories (Burlington, NC) using a short tandem repeat (STR) profiling method (March 2015; […]
as §3
as §5, with “Cell viability and proliferation were ex amined using a s ulforhodamine B (SRB) assa y as described previousl y (Hu et al., 2008). IC” for “IC”
737/ABT-199 w ere us ed at or below IC 50 . The combinational index (CI) w as calculat ed as previousl y described (Chou, 2006). […]
(§8) (Romero and Lee, 2008), and the cells were r eleas ed in to complete medium in the absence (sham) or presence of compound(s). […]

[3] = mouse, in vivo
Description: Athymic mice engrafted with tumor cells were used to determine antitumor activity. […] When tumor size reached 5–6 mm in diameter (n = 4–5 per group), mice were randomly assigned into several groups and vehicle-treated or treated with drug(s). […] Animals were monitored for food and water consumption every day, and their body weights and tumor volumes were measured twice per week. Tumor volumes were measured with a digital caliper and were determined by the following formula: ½ length × width^2. Blood samples were collected via cardiac puncture and processed for ALT and AST measurements. The animals were then immediately euthanized by carbon dioxide. Tumors and vital organs (spleen, kidney, liver and lung) were harvested and fixed in 10% buffered formalin at 4 °C overnight before being processed for a paraffin embedding. The paraffin-embedded blocks were then sectioned to 4–5 µm thick. Each section was stained with haematoxylin and eosin (H&E).

[4] = system: MDA-MB-231 triple-negative metastatic breast cancer cells; assay: Antitumor activity in engrafted athymic mice; type: in vivo, ATH490 athymic mice
Description: The animals were then immediately euthanized by carbon dioxide. […]
Supplementary Table S2. A typical treatment protocol of engrafted mice with CTR alone or in
combination with paclitaxel.
Treatment Dos a ge Frequ enc y Route Notes
Sham control Highest volume E v e r y 3-4 d a ys Intraperitoneal (I.P.) Vehicle onl y
Taxa 10 mg/kgb Once/week Intravenous ( I.V.)
CTR-17 (30) 30 mg/kg E v e r y 3-4 d a ys I. P .
CTR-20 (30) 30 mg/kg E v e r y 3-4 d a ys I. P .
Supplementary Table S 3: Antitumor activity of CTR -17 and CTR -20, alone or in combination
a Tax: paclitaxel. b mg per kg of bod y wei ght. c unit is mm 3. […]

MDA-MB-231TaxR = assay: SRB cell viability, paclitaxel-resistant cells; type: cell-based; settings: MDA-MB-231TaxR vs MDA-MB-231
Description: as §7, §3
as §5, with “Cell viability and proliferation were ex amined using a s ulforhodamine B (SRB) assa y as described previousl y (Hu et al., 2008). IC” for “IC”
as §8

MRP1 [5] = target: T1, MRP1 (Homo sapiens, UniProt P33527); assay: Rh123 dye efflux assay, HEK293-MRP1 cells; type: cell-based; settings: 22 µmol/L of drug, DMSO control 39.6%
T1 construct: expressed in transfected cells; host or cells: HEK293-MRP1 (gift of Dr. Susan Cole)
T1 sequence (P33527 whole entry): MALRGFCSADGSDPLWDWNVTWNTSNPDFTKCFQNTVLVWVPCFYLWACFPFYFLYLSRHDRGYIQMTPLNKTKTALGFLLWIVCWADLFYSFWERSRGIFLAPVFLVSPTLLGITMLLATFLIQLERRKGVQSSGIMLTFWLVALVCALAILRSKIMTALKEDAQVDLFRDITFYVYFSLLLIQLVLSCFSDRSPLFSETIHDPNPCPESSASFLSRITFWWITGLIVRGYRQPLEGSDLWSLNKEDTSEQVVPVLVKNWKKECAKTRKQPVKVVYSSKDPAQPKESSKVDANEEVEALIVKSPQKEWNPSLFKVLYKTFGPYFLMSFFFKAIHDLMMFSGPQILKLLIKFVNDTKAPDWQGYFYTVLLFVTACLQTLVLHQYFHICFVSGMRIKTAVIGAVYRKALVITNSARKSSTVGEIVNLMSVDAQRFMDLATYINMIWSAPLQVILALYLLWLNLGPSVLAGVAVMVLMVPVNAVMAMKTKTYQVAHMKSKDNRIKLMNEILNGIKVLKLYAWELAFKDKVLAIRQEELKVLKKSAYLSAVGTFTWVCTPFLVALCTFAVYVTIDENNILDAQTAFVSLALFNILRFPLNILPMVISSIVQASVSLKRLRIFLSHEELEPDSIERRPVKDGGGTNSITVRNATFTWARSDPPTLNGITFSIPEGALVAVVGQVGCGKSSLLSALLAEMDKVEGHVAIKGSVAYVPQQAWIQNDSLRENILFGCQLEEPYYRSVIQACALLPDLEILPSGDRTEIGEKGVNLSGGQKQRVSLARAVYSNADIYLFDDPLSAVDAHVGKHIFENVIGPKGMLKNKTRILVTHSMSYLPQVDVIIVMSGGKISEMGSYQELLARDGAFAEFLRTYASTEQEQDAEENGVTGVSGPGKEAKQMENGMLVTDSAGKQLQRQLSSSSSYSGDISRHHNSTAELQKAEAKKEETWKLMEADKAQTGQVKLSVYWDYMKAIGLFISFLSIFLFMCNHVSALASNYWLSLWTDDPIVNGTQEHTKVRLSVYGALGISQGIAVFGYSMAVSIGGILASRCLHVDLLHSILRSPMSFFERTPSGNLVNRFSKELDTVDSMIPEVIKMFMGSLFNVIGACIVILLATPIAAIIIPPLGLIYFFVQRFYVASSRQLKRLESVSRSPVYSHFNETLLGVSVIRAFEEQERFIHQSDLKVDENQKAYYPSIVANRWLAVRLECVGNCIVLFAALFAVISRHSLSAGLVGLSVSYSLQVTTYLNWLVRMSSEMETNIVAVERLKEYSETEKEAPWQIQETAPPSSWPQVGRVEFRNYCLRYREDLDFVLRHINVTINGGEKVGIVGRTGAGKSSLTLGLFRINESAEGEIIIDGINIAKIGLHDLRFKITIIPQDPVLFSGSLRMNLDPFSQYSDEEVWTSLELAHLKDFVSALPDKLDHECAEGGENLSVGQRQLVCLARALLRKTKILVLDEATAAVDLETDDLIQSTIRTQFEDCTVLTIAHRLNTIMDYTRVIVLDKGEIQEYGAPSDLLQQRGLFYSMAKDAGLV
Description: Rhodamine123 (Rh123) drug efflux was carried out using a Multidrug-Resistance Direct Dye Efflux Activity Kit (Millipore, Darmstadt, Germany), with some modifications. […] Reading was carried out with a Beckman Coulter FC500 flow cytometer.

MRP1 [6] = target: T1, MRP1; assay: Calcein-AM retention assay, HEK293-MRP1 cells; type: cell-based; settings: 22 µmol/L, DMSO control 52%
HEK293-MRP1 = assay: SRB cell viability, MRP1-overexpressing cells; type: cell-based, human; settings: HEK293-MRP1 vs HEK293
Description: Parental HEK293 and M RP1- overexpressing HEK293- MRP1 isogenic cel ls were kind gifts of Dr. Susan Cole (Queen’s Universit y, Kingston, Ontario, Canada). […]
as §3, §4, §5, §6

| SMILES | IC50 (KB-C-2 [1]) | IC50 (SW-1271) | IC50 (MDA-MB-231) | IC50 (KB-C-1) | resistance ratio of KB-C-2 vs KB-C-1 cells (KB-C-2 [2]) | Resistance (fold) (KB-C-2 [2]) | Resistance (fold) (H69AR) | IC50 (H69AR) | other results |
| --- | --- | --- | --- | --- | --- | --- | --- | --- | --- |
| CC1(C)CCC(CN2CCN(c3ccc(C(=O)NS(=O)(=O)c4ccc(NCC5CCOCC5)c([N+](=O)[O-])c4)c(Oc4cnc5[nH]ccc5c4)c3)CC2)=C(c2ccc(Cl)cc2)C1 [ABT-199] |  |  | 11.6 ± 1.13 µM |  |  |  |  |  |  |
| COc1cc2c(c(OC)c1OC)-c1ccc(OC)c(=O)cc1[C@@H](NC(C)=O)CC2 [colchicine] |  |  |  |  |  |  |  |  | Rh123 retention (MRP1 [5]): 77.6%; calcein-AM retained in the cells (MRP1 [6]): 59%; resistance of MRP1-overexpressing HEK293 cells (HEK293-MRP1): approximately 3.5 fold |

Further lines, with some results ahead:

| IC50 (KB-C-2 [1]) | IC50 (SW-1271) | IC50 (MDA-MB-231) | SMILES | IC50 (KB-C-1) | resistance ratio of KB-C-2 vs KB-C-1 cells (KB-C-2 [2]) | Resistance (fold) (KB-C-2 [2]) | Resistance (fold) (H69AR) | IC50 (H69AR) | other results |
| --- | --- | --- | --- | --- | --- | --- | --- | --- | --- |
| 9.27 ± 3.22 nM | 1.75 ± 0.21 nM |  | CC[C@]1(O)C[C@@H]2CN(CCc3c([nH]c4ccccc34)[C@@](C(=O)OC)(c3cc4c(cc3OC)N(C)[C@H]3[C@@](O)(C(=O)OC)[C@H](OC(C)=O)[C@]5(CC)C=CCN6CC[C@]43[C@@H]65)C2)C1 [vinblastine] | 0.61 ± 0.09 nM | 15.20 folds | 15.20 fold | 5.82 fold | 10.2 ± 1.97 nM |  |
|  |  | 28.5 ± 3.99 µM | CN(C)CC[C@H](CSc1ccccc1)Nc1ccc(S(=O)(=O)NC(=O)c2ccc(N3CCN(Cc4ccccc4-c4ccc(Cl)cc4)CC3)cc2)cc1[N+](=O)[O-] [ABT-737] |  |  |  |  |  |  |
| 23.08 ± 0.21 nM | 4.51 ± 0.71 nM |  | CC(=O)O[C@H]1C(=O)[C@@]2(C)[C@H]([C@H](OC(=O)c3ccccc3)[C@]3(O)C[C@H](OC(=O)[C@H](O)[C@@H](NC(=O)c4ccccc4)c4ccccc4)C(C)=C1C3(C)C)[C@]1(OC(C)=O)CO[C@@H]1C[C@@H]2O [paclitaxel, reference compound] | 2.01 ± 0.17 nM | 11.48 folds | 11.48 fold | 2.44 fold | 11 ± 2.6 nM | mice showing presence of hyaline in kidney [3]: one in four mice; tumor volume Day 0 ([4]; Tax 10 mg/kg i.v. once/week, CTR 30 mg/kg i.p. every 3-4 days, combinations Tax 5 + CTR 15 mg/kg once/week): 91.84 mm3; tumor volume Day 6 ([4]; Tax 10 mg/kg i.v. once/week, CTR 30 mg/kg i.p. every 3-4 days, combinations Tax 5 + CTR 15 mg/kg once/week, sham 105.03): 90.11 mm3; tumor volume Day 14 ([4]; same doses, sham 136.66): 94.66 mm3; tumor volume Day 17 ([4]; same doses, sham 162.62): 92.33 mm3; tumor volume Day 20 ([4]; same doses, sham 192.69): 81.66 mm3; tumor volume Day 24 ([4]; same doses, sham 268.08): 95.61 mm3; tumor volume Day 27 ([4]; same doses, sham 426.87): 139.41 mm3; tumor volume Day 30 ([4]; same doses, sham 557.66): 170.36 mm3; resistance of MDA-MB-231TaxR (MDA-MB-231TaxR): 114 times |
